The target in assay [1] is T1, RBL-1 Cell Cyclooxygenase (Rattus norvegicus, UniProt Q63921).
T1 construct: the supernatant was saved as the source of enzymes; endogenous in cells; host or cells: RBL-1 (rat basophilic leukemia cells), 10,000×g supernatant of homogenate
T1 sequence (Q63921 27-602): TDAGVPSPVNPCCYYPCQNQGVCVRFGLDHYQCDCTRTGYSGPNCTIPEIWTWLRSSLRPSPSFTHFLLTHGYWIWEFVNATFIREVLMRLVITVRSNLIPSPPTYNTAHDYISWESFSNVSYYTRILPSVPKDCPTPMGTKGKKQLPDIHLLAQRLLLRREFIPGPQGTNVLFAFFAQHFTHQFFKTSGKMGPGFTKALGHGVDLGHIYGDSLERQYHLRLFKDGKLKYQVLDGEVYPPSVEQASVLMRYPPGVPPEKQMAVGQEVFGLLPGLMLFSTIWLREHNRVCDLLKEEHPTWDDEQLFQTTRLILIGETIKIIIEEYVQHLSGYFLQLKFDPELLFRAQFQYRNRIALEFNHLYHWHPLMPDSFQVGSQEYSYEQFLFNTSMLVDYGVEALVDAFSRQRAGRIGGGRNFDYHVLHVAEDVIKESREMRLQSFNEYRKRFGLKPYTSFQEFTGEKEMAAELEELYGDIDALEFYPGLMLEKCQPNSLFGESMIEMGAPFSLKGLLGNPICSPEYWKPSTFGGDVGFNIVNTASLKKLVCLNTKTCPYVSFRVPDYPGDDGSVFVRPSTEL
Put plainly: Procedure II: cyclooxygenase inhibition in disrupted RBL-1 cells (supernatant as enzyme source). The assay is classed as biochemical. Conditions: for pIC50: read-out: IC50 CO (Procedure II). As for the experimental part:
(§1) RBL-1 Cell 5-Lipoxygenase and Cyclooxygenase
(§2) Rat basophilic leukemia cells (RBL-1; 5×10^7 viable cells/mL) were disrupted by homogenization on ice (four 20 sec bursts) with a Brinkman polytron. Complete cell breakage was verified microscopically. The homogenate was then centrifuged at 10,000×g for 48 minutes at 4° C. The pellet was discarded and the supernatant was saved as the source of enzymes. The supernatant was pre-incubated for five minutes at 37° C. in the presence of 2 mM of CaCl2 and compound or vehicle (1% DMSO). The conversion of AA into 5-LO products was initiated by adding 10 μL (50 μCi) of 1-^14 C-AA to each tube and incubated at 37° C. for 20 minutes. The reaction was stopped by adjusting the pH of each sample to 3 to 3.5 with 2M formic acid. Samples were extracted with three volumes of chloroform to isolate the products of 5-LO formed during the reaction. Fractions were dried under nitrogen, then resuspended in 40 μL of chloroform and spotted onto silica gel HL plates. The plates were developed in A-9 solvent. The dried plates were analyzed using a Bioscan Imaging TLC scanner to determine the percentage of radiolabelled AA converted to 5-HETE in each sample.
(§3) In the following tables, the superscripts indicate the number of experiments and, unless otherwise stated, the dose at which % inhibition is reported is 3 MPK.

Assay [2] concerns the target T2, RBL-1 Cell 5-Lipoxygenase (Rattus norvegicus, UniProt P12527).
T2 construct: the supernatant was saved as the source of enzymes; endogenous in cells; host or cells: RBL-1 (rat basophilic leukemia cells), 10,000×g supernatant of homogenate
T2 sequence (P12527 1-673): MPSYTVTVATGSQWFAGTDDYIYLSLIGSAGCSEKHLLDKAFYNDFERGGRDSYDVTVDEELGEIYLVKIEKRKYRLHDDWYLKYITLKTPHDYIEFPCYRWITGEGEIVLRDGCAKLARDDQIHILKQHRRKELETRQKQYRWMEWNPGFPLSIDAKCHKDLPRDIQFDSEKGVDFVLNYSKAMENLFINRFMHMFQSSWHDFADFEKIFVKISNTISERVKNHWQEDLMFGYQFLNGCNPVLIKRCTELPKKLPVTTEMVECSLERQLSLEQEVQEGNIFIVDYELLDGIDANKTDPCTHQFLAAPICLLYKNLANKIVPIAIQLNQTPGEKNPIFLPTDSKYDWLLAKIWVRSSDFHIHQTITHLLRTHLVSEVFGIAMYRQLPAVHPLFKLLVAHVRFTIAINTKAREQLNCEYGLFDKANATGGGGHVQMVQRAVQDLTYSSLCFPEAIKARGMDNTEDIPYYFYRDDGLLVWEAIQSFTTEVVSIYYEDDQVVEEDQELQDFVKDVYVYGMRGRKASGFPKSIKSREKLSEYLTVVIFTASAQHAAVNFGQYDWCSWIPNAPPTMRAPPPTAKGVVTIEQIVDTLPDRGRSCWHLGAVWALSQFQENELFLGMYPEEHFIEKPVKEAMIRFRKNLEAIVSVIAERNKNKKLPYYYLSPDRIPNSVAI
Put plainly: Procedure II: 5-lipoxygenase inhibition in disrupted RBL-1 cells (supernatant as enzyme source). The assay is classed as biochemical. Conditions: for pIC50: read-out: IC50 5-LO (Procedure II). The method, then:
as §1, §2, §3

The target of assay [3] is T3, CO in intact RBL-1 cells (Rattus norvegicus, UniProt Q63921).
T3 construct: 5-LO and CO in intact RBL-1 cells; endogenous in cells; host or cells: RBL-1 (rat basophilic leukemia cells), intact
T3 sequence (Q63921 27-602): T1 sequence (Q63921 27-602)
Description: Procedure III: inhibition of CO in intact RBL-1 cells. The assay is classed as cell-based. As for the experimental part:
(§4) The ability to inhibit 5-LO and CO in intact RBL-1 cells was also evaluated. RBL-1 cells were maintained in culture in minimal essential medium (Bio*Whittaker, Walkersville, Md.), containing 12.5% fetal calf serum, 10 mg/mL streptomycin, 10 I.U./mL penicillin G, […] gentamycin and 2 mM L-glutamine (Bio*Whittaker, Walkersville, Md.). Cells were collected by centrifugation, washed once in HBSS, and resuspended at a concentration of 1×10^5 cells/mL. Cells were incubated in the presence of vehicle or drug then centrifuged at 800×g for 10 minutes at 4° C. The supernatant was removed by aspiration and the cells were resuspended in 0.5 mL of HBSS. The reaction was started by the addition of 20 μg/mL of calcium ionophore A-23187 (mixed calcium and magnesium salts, Calbiochem, La Jolla, Calif.) and allowed to proceed for 15 minutes, then stopped by plunging the tubes into a slush ice bath. The conversion of AA to 5-LO products was initiated by the addition of 10 μL (50 uCi) of 1-^14 C-AA. Products were isolated by acidification and extraction, followed by thin layer chromatography analysis as described above. Radioactive areas corresponding to authentic 5-LO and CO products were quantitated by the Bioscan 2000 Imaging System.
as §3

The target in assay [4] is T4, 5-LO in intact RBL-1 cells (Rattus norvegicus, UniProt P12527).
T4 construct: 5-LO and CO in intact RBL-1 cells; endogenous in cells; host or cells: RBL-1 (rat basophilic leukemia cells), intact
T4 sequence (P12527 1-673): T2 sequence (P12527 1-673)
Description: Procedure III: inhibition of 5-LO in intact RBL-1 cells. The assay is classed as cell-based. The method, then: as §4, §3

Consider two molecules from patent publication US5387602A, “1.5-diphenyl-3-(N-hydroxycarbamoyloxyalkyl)pyrazoles” (Ortho Pharmaceutical Corporation, priority 1993, dated 1995).

pIC50: −log10 of the molar value.

Usually pIC50 stands for −log10 of the IC50, conventionally taken in molar units. As to `COc1ccc(-n2nc(CCCOC(=O)N(C)O)c(Br)c2-c2ccc(Cl)cc2)cc1` [3-F], the “% INHIBITION CO (Procedure II)” value in assay [1] amounted to 100%. Also, the pIC50 in assay [1] is 5.21; in assay [2], 7.22; in assay [3], 5.31; in assay [4], 5.63. Moreover, the “% INHIBITION 5-LO (Procedure II)” value in assay [2] is reported as 88%.
For `COc1ccc(-n2nc(CCCOC(=O)N(O)C(C)C)c(Br)c2-c2ccc(Cl)cc2)cc1` [3-G], the “% INHIBITION CO (Procedure II)” value in assay [1] was 0%. In addition, the pIC50 in assay [1] is 5.50; in assay [2], 7.52; in assay [3], 5.15; in assay [4], 5.82. Moreover, the “% INHIBITION 5-LO (Procedure II)” value in assay [2] came to 80%.
